Species on record: Rattus norvegicus
Test: Open TG-GATES - Regimen: Single
Format: toxicity, organism-based, Sprague-Dawley
Parameters: regimen Single, gender Male, age 6 weeks
Conditions: in vivo, po, route gavage; for APTT / Bas / Eos / Fbg / Hb / Ht / Lym / MCH / MCHC / MCV / Mono / Neu / PT / Plat / RBC / Ret / WBC: tissue Blood; for KIDNEY_L / KIDNEY_R / KIDNEY_TOTAL: tissue Kidney; for LIVER: tissue Liver; for A/G / ALP / ALT / AST / BUN / CRE / Ca / Cl / DBIL / GLC / IP / K / LDH / Na / PL / RALB / TBIL / TC / TG / TP / gamma-GTP: tissue Plasma
[1] = 0 mg/kg, 3 h, dose level Control
[2] = 0 mg/kg, 6 h, dose level Control
[3] = 0 mg/kg, 9 h, dose level Control
[4] = 0 mg/kg, 24 h, dose level Control

## CC(C)NNC(=O)c1ccncc1 [IPRONIAZID]
[1]
  TERMINAL_BW: 208.3 g
  APTT: 21.1 s
  Bas: 0%
  Eos: 0.6%
  Fbg: 318.8 mg/dL
  Hb: 13.3 g/dL
  Ht: 38.7%
  Lym: 82.2%
  MCH: 21.3 pg
  MCHC: 34.3%
  MCV: 62.1 fL
  Mono: 1.6%
  Neu: 15%
  PT: 16.4 s
  Plat: 108.8 x10_4/uL
  RBC: 624.6 x10_4/ul
  Ret: 7.2%
  WBC: 72.6 x10_2/uL
  KIDNEY_L: 0.9 g
  KIDNEY_R: 0.9 g
  KIDNEY_TOTAL: 1.9 g
  LIVER: 9.7 g
  A/G: 1.3
  ALP: 1798.2 IU/L
  ALT: 41.4 IU/L
  AST: 78.6 IU/L
  BUN: 13.6 mg/dL
  CRE: 0.2 mg/dL
  Ca: 10.8 mg/dL
  Cl: 107.6 meq/L
  DBIL: 0.004 mg/dL
  GLC: 190.2 mg/dL
  IP: 8 mg/dL
  K: 4.1 meq/L
  LDH: 225 IU/L
  Na: 142.4 meq/L
  PL: 136.4 mg/dL
  RALB: 3.1 g/dL
  TBIL: 0.022 mg/dL
  TC: 75.4 mg/dL
  TG: 53.2 mg/dL
  TP: 5.5 g/dL
  gamma-GTP: 1.2 IU/L
[2]
  TERMINAL_BW: 208.9 g
  APTT: 23.2 s
  Bas: 0%
  Eos: 0.8%
  Fbg: 305.8 mg/dL
  Hb: 13.3 g/dL
  Ht: 38.6%
  Lym: 79.4%
  MCH: 21.5 pg
  MCHC: 34.3%
  MCV: 62.5 fL
  Mono: 2.4%
  Neu: 16.6%
  PT: 15.6 s
  Plat: 115.7 x10_4/uL
  RBC: 618.8 x10_4/ul
  Ret: 8.7%
  WBC: 96.2 x10_2/uL
  KIDNEY_L: 0.9 g
  KIDNEY_R: 1 g
  KIDNEY_TOTAL: 1.9 g
  LIVER: 9 g
  A/G: 1.3
  ALP: 1530.2 IU/L
  ALT: 38.6 IU/L
  AST: 71.6 IU/L
  BUN: 11.2 mg/dL
  CRE: 0.2 mg/dL
  Ca: 10.6 mg/dL
  Cl: 105.8 meq/L
  DBIL: 0.006 mg/dL
  GLC: 180 mg/dL
  IP: 9.3 mg/dL
  K: 4.3 meq/L
  LDH: 179.8 IU/L
  Na: 141.4 meq/L
  PL: 140.6 mg/dL
  RALB: 3 g/dL
  TBIL: 0.02 mg/dL
  TC: 75.6 mg/dL
  TG: 62.6 mg/dL
  TP: 5.3 g/dL
  gamma-GTP: 1 IU/L
[3]
  TERMINAL_BW: 200.8 g
  APTT: 22.6 s
  Bas: 0%
  Eos: 1%
  Fbg: 314.5 mg/dL
  Hb: 12.9 g/dL
  Ht: 37.8%
  Lym: 75.5%
  MCH: 21.4 pg
  MCHC: 34.3%
  MCV: 62.6 fL
  Mono: 2%
  Neu: 20.5%
  PT: 15.7 s
  Plat: 110.7 x10_4/uL
  RBC: 605.5 x10_4/ul
  Ret: 8.4%
  WBC: 86.5 x10_2/uL
  KIDNEY_L: 0.9 g
  KIDNEY_R: 0.9 g
  KIDNEY_TOTAL: 1.9 g
  LIVER: 8.5 g
  A/G: 1.2
  ALP: 1450.5 IU/L
  ALT: 41.2 IU/L
  AST: 76.5 IU/L
  BUN: 10.5 mg/dL
  CRE: 0.2 mg/dL
  Ca: 10.3 mg/dL
  Cl: 107 meq/L
  DBIL: 0.005 mg/dL
  GLC: 178.2 mg/dL
  IP: 9.8 mg/dL
  K: 4 meq/L
  LDH: 172.2 IU/L
  Na: 141.8 meq/L
  PL: 135 mg/dL
  RALB: 3 g/dL
  TBIL: 0.0175 mg/dL
  TC: 81.8 mg/dL
  TG: 39.8 mg/dL
  TP: 5.5 g/dL
  gamma-GTP: 1.2 IU/L
[4]
  TERMINAL_BW: 216 g
  APTT: 21.7 s
  Bas: 0%
  Eos: 1%
  Fbg: 333.2 mg/dL
  Hb: 13.5 g/dL
  Ht: 39.1%
  Lym: 77.8%
  MCH: 21.4 pg
  MCHC: 34.4%
  MCV: 62.3 fL
  Mono: 3%
  Neu: 17.6%
  PT: 16.7 s
  Plat: 124 x10_4/uL
  RBC: 627 x10_4/ul
  Ret: 7.8%
  WBC: 113.7 x10_2/uL
  KIDNEY_L: 1 g
  KIDNEY_R: 1 g
  KIDNEY_TOTAL: 1.9 g
  LIVER: 10.3 g
  A/G: 1.2
  ALP: 1519.2 IU/L
  ALT: 39.8 IU/L
  AST: 76.8 IU/L
  BUN: 17.2 mg/dL
  CRE: 0.2 mg/dL
  Ca: 10.9 mg/dL
  Cl: 107.6 meq/L
  DBIL: 0.002 mg/dL
  GLC: 179.6 mg/dL
  IP: 7.6 mg/dL
  K: 4.4 meq/L
  LDH: 287.6 IU/L
  Na: 142.6 meq/L
  PL: 152.8 mg/dL
  RALB: 3.1 g/dL
  TBIL: 0 mg/dL
  TC: 82.2 mg/dL
  TG: 84.4 mg/dL
  TP: 5.6 g/dL
  gamma-GTP: 1.8 IU/L
6 mg/kg, 3 h, dose level Low
  TERMINAL_BW: 204.8 g
  APTT: 22.1 s
  Bas: 0%
  Eos: 1%
  Fbg: 317 mg/dL
  Hb: 13.4 g/dL
  Ht: 38.8%
  Lym: 77%
  MCH: 21.1 pg
  MCHC: 34.5%
  MCV: 61.2 fL
  Mono: 1.8%
  Neu: 20%
  PT: 16.3 s
  Plat: 129.7 x10_4/uL
  RBC: 634.8 x10_4/ul
  Ret: 7.5%
  WBC: 72.5 x10_2/uL
  KIDNEY_L: 1 g
  KIDNEY_R: 1 g
  KIDNEY_TOTAL: 2 g
  LIVER: 9.7 g
  A/G: 1.2
  ALP: 1455.8 IU/L
  ALT: 40.8 IU/L
  AST: 83.8 IU/L
  BUN: 13.4 mg/dL
  CRE: 0.1 mg/dL
  Ca: 10.6 mg/dL
  Cl: 106.8 meq/L
  DBIL: 0.002 mg/dL
  GLC: 187.2 mg/dL
  IP: 9 mg/dL
  K: 4.1 meq/L
  LDH: 208.2 IU/L
  Na: 142 meq/L
  PL: 132.4 mg/dL
  RALB: 3.1 g/dL
  TBIL: 0.016 mg/dL
  TC: 67 mg/dL
  TG: 73.2 mg/dL
  TP: 5.6 g/dL
  gamma-GTP: 1.4 IU/L
6 mg/kg, 6 h, dose level Low
  TERMINAL_BW: 201.3 g
  APTT: 22.8 s
  Bas: 0%
  Eos: 0.6%
  Fbg: 317 mg/dL
  Hb: 13.1 g/dL
  Ht: 38.4%
  Lym: 78.8%
  MCH: 20.9 pg
  MCHC: 34.1%
  MCV: 61.2 fL
  Mono: 2.2%
  Neu: 17.8%
  PT: 15.6 s
  Plat: 118.4 x10_4/uL
  RBC: 627.2 x10_4/ul
  Ret: 7.4%
  WBC: 69.8 x10_2/uL
  KIDNEY_L: 0.9 g
  KIDNEY_R: 0.9 g
  KIDNEY_TOTAL: 1.9 g
  LIVER: 8.9 g
  A/G: 1.2
  ALP: 1305.2 IU/L
  ALT: 36.8 IU/L
  AST: 73.2 IU/L
  BUN: 9.6 mg/dL
  CRE: 0.2 mg/dL
  Ca: 10.6 mg/dL
  Cl: 106.8 meq/L
  DBIL: 0.002 mg/dL
  GLC: 182.4 mg/dL
  IP: 9.2 mg/dL
  K: 4.3 meq/L
  LDH: 225.2 IU/L
  Na: 141.6 meq/L
  PL: 135.2 mg/dL
  RALB: 3.1 g/dL
  TBIL: 0.014 mg/dL
  TC: 74.2 mg/dL
  TG: 62.2 mg/dL
  TP: 5.5 g/dL
  gamma-GTP: 1 IU/L
6 mg/kg, 9 h, dose level Low
  TERMINAL_BW: 205.8 g
  APTT: 22 s
  Bas: 0%
  Eos: 1%
  Fbg: 323.2 mg/dL
  Hb: 13.2 g/dL
  Ht: 38.7%
  Lym: 77.8%
  MCH: 20.8 pg
  MCHC: 34.1%
  MCV: 60.9 fL
  Mono: 2%
  Neu: 18.6%
  PT: 15.8 s
  Plat: 120.2 x10_4/uL
  RBC: 635.6 x10_4/ul
  Ret: 7.8%
  WBC: 99.2 x10_2/uL
  KIDNEY_L: 0.9 g
  KIDNEY_R: 1 g
  KIDNEY_TOTAL: 1.9 g
  LIVER: 8.7 g
  A/G: 1.2
  ALP: 1353 IU/L
  ALT: 37.2 IU/L
  AST: 72 IU/L
  BUN: 12.8 mg/dL
  CRE: 0.2 mg/dL
  Ca: 10.4 mg/dL
  Cl: 106.8 meq/L
  DBIL: 0.004 mg/dL
  GLC: 178.8 mg/dL
  IP: 10 mg/dL
  K: 4.2 meq/L
  LDH: 172.6 IU/L
  Na: 141.4 meq/L
  PL: 130.6 mg/dL
  RALB: 3 g/dL
  TBIL: 0.014 mg/dL
  TC: 74 mg/dL
  TG: 72.2 mg/dL
  TP: 5.5 g/dL
  gamma-GTP: 1.4 IU/L
6 mg/kg, 24 h, dose level Low
  TERMINAL_BW: 218.2 g
  APTT: 21.7 s
  Bas: 0%
  Eos: 1%
  Fbg: 323.4 mg/dL
  Hb: 13.2 g/dL
  Ht: 38.3%
  Lym: 83.8%
  MCH: 21.2 pg
  MCHC: 34.5%
  MCV: 61.3 fL
  Mono: 2.6%
  Neu: 12.2%
  PT: 16.6 s
  Plat: 119.6 x10_4/uL
  RBC: 624 x10_4/ul
  Ret: 7.1%
  WBC: 95 x10_2/uL
  KIDNEY_L: 1 g
  KIDNEY_R: 1 g
  KIDNEY_TOTAL: 1.9 g
  LIVER: 10.2 g
  A/G: 1.2
  ALP: 1506.4 IU/L
  ALT: 43.2 IU/L
  AST: 74.6 IU/L
  BUN: 15.2 mg/dL
  CRE: 0.2 mg/dL
  Ca: 10.7 mg/dL
  Cl: 106.4 meq/L
  DBIL: 0.004 mg/dL
  GLC: 179.8 mg/dL
  IP: 7.4 mg/dL
  K: 4.6 meq/L
  LDH: 255 IU/L
  Na: 141.6 meq/L
  PL: 148.8 mg/dL
  RALB: 3 g/dL
  TBIL: 0.008 mg/dL
  TC: 83.2 mg/dL
  TG: 98.8 mg/dL
  TP: 5.5 g/dL
  gamma-GTP: 1.6 IU/L
